According to US5643954A, “Method of preventing and alleviating stress in a healthy mammal in need thereof” (priority 1993, dated 1997):
Read-outs that look alike come from different tables or passages of the source.

Assays:
[1] = orientation motive activity of mice, automated registration of movements; format: in vivo, mice (male); conditions: for Number of movements in 10 min in register: M ± m
Description: Experiments were conducted in vivo on male mice weighing 18-22 g and male rats weighing 200-250 g, as well as in vitro on the isolated organs: a guinea pig's ileum and a rat's seminal effervesces.

[2] = tested on: Corazol convulsions; test: testings with Corazolin (Corazol), mice; format: in vivo; conditions: for Corazol latent period / Corazol life-time: M ± m
[3] = tested on: bioelectric activity of rats' brain; test: spontaneous bioelectrical activity of rats' brain (EEG, implanted electrodes); format: in vivo; set-up: Amplitude, slow activ. / Amplitude, fast activ.: unit not given here; conditions: for Amplitude, fast activ. / Amplitude, slow activ.: M ± m
[4] = for Addition: after taking
Description: A test permits evaluating the rate of counting-computing operations per unit time (in each and every minute), duration of execution of the task (time spent for adding 184 pairs of numbers), the number of mistakes, the speed of attention switching and the degree of weariness.

[5] = tested on: electric painful irritation; conditions: 60 min before experiment
[6] = tested on: hexenal effects; conditions: M ± m
[7] = tested on: phenamine stereotypy; conditions: M ± m
[8] = tested on: apomorphine stereotypy; conditions: M ± m
[9] = tested on: Corazol twitch paroxysm; conditions: for Threshold doses Corazol 1% solution, death of animal / Threshold doses Corazol 1% solution, start of twitch: M ± m
[10] = tested on: electrical-shock-caused paroxysms
[11] = after dose, M ± m
[12] = tested on: EEG; conditions: for Biopotential slow form amplitude / Expression of biopotential slow forms / Expression of pathologically acute waves and peaked oscillation / Expression of α-rhythm / Paroxysmal bursts / α-frequency / α-oscillation amplitude / β-rhythm amplitude / β-rhythm expression / β-rhythm, low-frequency expression: M
[13] = tested on: EEG; conditions: M
[14] = intragastric, 20 min before Corazol, in words
[15] = 30 min after taking the claimed preparation
[16] = 40 mg/kg week-long introduction
[17] = 200 mg/kg single administration

Substance: aminoacetic acid [claimed preparation]
- Number of movements in 10 min in register ([1]; 2 mg/kg intraperitoneally): 371 ± 56
- Number of movements in 10 min in register ([1]; 20 mg/kg intraperitoneally): 365 ± 79
- Number of movements in 10 min in register ([1]; 40 mg/kg into stomach): 439 ± 70
- Number of movements in 10 min in register ([1]; 40 mg/kg intraperitoneally): 324 ± 56
- Number of movements in 10 min in register ([1]; 80 mg/kg intraperitoneally): 398 ± 48
- Number of movements in 10 min in register ([1]; 200 mg/kg intraperitoneally): 275 ± 23
- motor activity ([1]; in words): reduction of animals' motor activity
- Corazol tonico-extensor phase ([2]; 2 mg/kg intragastric): 100 min
- Corazol latent period ([2]; 2 mg/kg intragastric): 39.0 ± 0.6 s
- Corazol life-time ([2]; 2 mg/kg intragastric): 2.5 ± 0.7 min
- Corazol tonico-extensor phase ([2]; 20 mg/kg intragastric): 80 min
- Corazol latent period ([2]; 20 mg/kg intragastric): 41.0 ± 0.3 s
- Corazol life-time ([2]; 20 mg/kg intragastric): 2.8 ± 0.8 min
- Corazol tonico-extensor phase ([2]; 40 mg/kg intragastric): 70 min
- Corazol latent period ([2]; 40 mg/kg intragastric): 49.0 ± 0.7 s
- Corazol life-time ([2]; 40 mg/kg intragastric): 2.4 ± 0.7 min
- Corazol tonico-extensor phase ([2]; 80 mg/kg intragastric): 70 min
- Corazol latent period ([2]; 80 mg/kg intragastric): 45.0 ± 0.9 s
- Corazol life-time ([2]; 80 mg/kg intragastric): 3.1 ± 0.9 min
- Corazol tonico-extensor phase ([2]; 200 mg/kg intragastric): 70 min
- Corazol latent period ([2]; 200 mg/kg intragastric): 42.5 ± 0.7 s
- Corazol life-time ([2]; 200 mg/kg intragastric): 2.4 ± 0.5 min
- latent period of Corazol convulsions [2, 14]: increased latent period of Corazol convulsions
- tonico-extensor component of a twitch paroxysm [2, 14]: some depression of the tonico-extensor component of a twitch paroxysm
- Amplitude, fast activ. ([3]; 2 mg/kg): 325 ± 24
- Amplitude, slow activ. ([3]; 2 mg/kg): 315 ± 14
- Maximal effect appearance time from the start of experiment ([3]; 40 mg/kg): 70 min
- Nature of effect ([3]; 40 mg/kg): episodic
- Nature of effect, episodes ([3]; 40 mg/kg): 1-2 episodes per hr
- synchronizing effect on encephalogram ([3]; 40 mg/kg intraperitoneally): tends to call for a synchronizing effect on an encephalogram
- Amplitude, fast activ. ([3]; 40 mg/kg): 243 ± 10
- Amplitude, slow activ. ([3]; 40 mg/kg): 380 ± 21
- cases with reduced time for adding up numbers ([4]; 30 min after single dose): 79.5%
- number of errors in counting ([4]; 30 min after single dose): diminishes twice
- reduction of time for adding up numbers ([4]; 30 min after single dose): 1.5 to 2 min
- Number of mistakes [4, 15]: 1
- Those making mistakes [4, 15]: 40%
- Speed of addition ([4]; 30 min after taking the claimed preparation, M ± m): 52.0 ± 1.9 pair/min
- Addition ([4]; alcoholic abstinence syndrome (2nd day), M ± m): 32.0 ± 1.6 pair/min
- Addition ([4]; remission period, M ± m): 51.0 ± 1.8 pair/min
- emotional reaction (squeak) [5]: did not exert influence on an emotional reaction
- increase of aggression reaction threshold [5]: 5±0.8 v
- number of fights [5]: reduced the number of fights
- strengthening of motor component (jumps) [5]: 1-1.5 points
- hexenal duration of sleep ([6]; 2 mg/kg): 36.0 ± 1.8 min
- hexenal latent period ([6]; 2 mg/kg): 4.5 ± 0.3 min
- hexenal duration of sleep ([6]; 40 mg/kg): 32.0 ± 1.9 min
- hexenal latent period ([6]; 40 mg/kg): 4.5 ± 0.6 min
- hexenal duration of sleep ([6]; 200 mg/kg): 28.0 ± 1.9 min
- hexenal latent period ([6]; 200 mg/kg): 3.8 ± 0.7 min
- phenamine duration of stereotypy ([7]; 2 mg/kg): 65.0 ± 2.5 min
- phenamine latent period ([7]; 2 mg/kg): 110.0 ± 2.6 s
- phenamine duration of stereotypy ([7]; 40 mg/kg): 62.0 ± 1.6 min
- phenamine latent period ([7]; 40 mg/kg): 115.0 ± 1.5 s
- phenamine duration of stereotypy ([7]; 200 mg/kg): 62.0 ± 2.1 min
- phenamine latent period ([7]; 200 mg/kg): 120.0 ± 2.8 s
- apomorphine duration of stereotypy ([8]; 2 mg/kg): 20.0 ± 0.9 min
- apomorphine latent period ([8]; 2 mg/kg): 98.0 ± 1.5 s
- apomorphine duration of stereotypy ([8]; 40 mg/kg): 22.0 ± 0.6 min
- apomorphine latent period ([8]; 40 mg/kg): 104.0 ± 0.9 s
- apomorphine duration of stereotypy ([8]; 200 mg/kg): 20.0 ± 0.5 min
- apomorphine latent period ([8]; 200 mg/kg): 95.5 ± 0.8 s
- Threshold doses Corazol 1% solution, death of animal ([9]; 2 mg/kg single administration): 0.119 ± 0.006 mL
- Threshold doses Corazol 1% solution, start of twitch ([9]; 2 mg/kg single administration): 0.095 ± 0.004 mL
- Threshold doses Corazol 1% solution, death of animal ([9]; 2 mg/kg week-long introduction): 0.119 ± 0.004 mL
- Threshold doses Corazol 1% solution, start of twitch ([9]; 2 mg/kg week-long introduction): 0.090 ± 0.007 mL
- Threshold doses Corazol 1% solution, death of animal ([9]; 40 mg/kg single administration): 0.130 ± 0.006 mL
- Threshold doses Corazol 1% solution, start of twitch ([9]; 40 mg/kg single administration): 0.091 ± 0.005 mL
- Threshold doses Corazol 1% solution, death of animal [9, 16]: 0.163 ± 0.005 mL
- Threshold doses Corazol 1% solution, start of twitch [9, 16]: 0.095 ± 0.005 mL
- Threshold doses Corazol 1% solution, death of animal ([9]; 80 mg/kg single administration): 0.135 ± 0.007 mL
- Threshold doses Corazol 1% solution, start of twitch ([9]; 80 mg/kg single administration): 0.095 ± 0.004 mL
- Threshold doses Corazol 1% solution, death of animal [9, 17]: 0.130 ± 0.08 mL
- Threshold doses Corazol 1% solution, start of twitch [9, 17]: 0.096 ± 0.007 mL
- Corazol threshold dosage ([9]; in words): somewhat increasing a Corazol threshold dosage
- Maximal electric shock death of animal ([10]; 2 mg/kg single administration): 70%
- Maximal electric shock tonico-extensor phase ([10]; 2 mg/kg single administration): 100%
- Maximal electric shock death of animal ([10]; 2 mg/kg week-long introduction): 60%
- Maximal electric shock tonico-extensor phase ([10]; 2 mg/kg week-long introduction): 100%
- Maximal electric shock death of animal ([10]; 40 mg/kg single administration): 40%
- Maximal electric shock tonico-extensor phase ([10]; 40 mg/kg single administration): 100%
- Maximal electric shock death of animal [10, 16]: 40%
- Maximal electric shock tonico-extensor phase [10, 16]: 100%
- Maximal electric shock death of animal ([10]; 80 mg/kg single administration): 40%
- Maximal electric shock tonico-extensor phase ([10]; 80 mg/kg single administration): 100%
- Maximal electric shock death of animal [10, 17]: 70%
- Maximal electric shock tonico-extensor phase [10, 17]: 100%
- activity towards electrical-shock-caused paroxysms ([10]; in words): inactive towards electrical-shock- caused paroxysms
- AMo/Δx ([11]; after testing): 94.8 ± 4.1
- Amo ([11]; after testing): 36.4 ± 2.2%
- Mo ([11]; after testing): 0.74 ± 0.03 s
- Δx ([11]; after testing): 0.38 ± 0.01 s
- AMo/Δx ([11]; prior to tests): 83.8 ± 4.0
- Amo ([11]; prior to tests): 32.0 ± 2.0%
- Mo ([11]; prior to tests): 0.75 ± 0.03 s
- Δx ([11]; prior to tests): 0.39 ± 0.01 s
- EEG variation a) ([12]; 1,5 hrs after a dose): 2.89 arbitrary units
- EEG variation b) ([12]; 1,5 hrs after a dose): 2.79 arbitrary units
- Biopotential slow form amplitude ([12]; 1,5 hrs after a dose): 41.40 mV
- Expression of biopotential slow forms ([12]; 1,5 hrs after a dose): 2.85 arbitrary units
- Expression of pathologically acute waves and peaked oscillation ([12]; 1,5 hrs after a dose): 1.71 arbitrary units
- Expression of α-rhythm ([12]; 1,5 hrs after a dose): 4.89 arbitrary units
- Paroxysmal bursts ([12]; 1,5 hrs after a dose): 2.21 arbitrary units
- α-frequency ([12]; 1,5 hrs after a dose): 10.60 Hertz
- α-oscillation amplitude ([12]; 1,5 hrs after a dose): 105.70 mV
- β-rhythm amplitude ([12]; 1,5 hrs after a dose): 13.60 mV
- β-rhythm expression ([12]; 1,5 hrs after a dose): 2.14 arbitrary units
- β-rhythm, low-frequency expression ([12]; 1,5 hrs after a dose): 1.21 arbitrary units
- EEG variation a) ([12]; after two-week course): 3.00 arbitrary units
- EEG variation b) ([12]; after two-week course): 2.42 arbitrary units
- Biopotential slow form amplitude ([12]; after two-week course): 44.20 mV
- Expression of biopotential slow forms ([12]; after two-week course): 3.60 arbitrary units
- Expression of pathologically acute waves and peaked oscillation ([12]; after two-week course): 1.93 arbitrary units
- Expression of α-rhythm ([12]; after two-week course): 4.54 arbitrary units
- Paroxysmal bursts ([12]; after two-week course): 3.00 arbitrary units
- α-frequency ([12]; after two-week course): 10.40 Hertz
- α-oscillation amplitude ([12]; after two-week course): 95.00 mV
- β-rhythm amplitude ([12]; after two-week course): 16.40 mV
- β-rhythm expression ([12]; after two-week course): 2.07 arbitrary units
- β-rhythm, low-frequency expression ([12]; after two-week course): 1.29 arbitrary units
- EEG-based activity ([12]; all examined EEG indicators, in words): has nootropic activity
- Attention mobilization: reaction expression ([13]; 1,5 hrs after a dose): 2.82 arbitrary units
- Eye opening-closing reaction: biopotential amplitude decline ([13]; 1,5 hrs after a dose): 25.40 mV
- Eye opening-closing reaction: response ([13]; 1,5 hrs after a dose): 3.71 arbitrary units
- HV-reaction (test with hyperventilation): reaction expression ([13]; 1,5 hrs after a dose): 2.07 arbitrary units
- HV-reaction: after-effect ([13]; 1,5 hrs after a dose): 12.40 s
- Presence of errors in count ([13]; 1,5 hrs after a dose): 28.60%
- Repeated response to eye opening-closing: reaction expression ([13]; 1,5 hrs after a dose): 3.73 arbitrary units
- Sonic signal count: reaction expression ([13]; 1,5 hrs after a dose): 3.64 arbitrary units
- Sonic signal count: reaction suppression ([13]; 1,5 hrs after a dose): 5.79 sonic signals
- Attention mobilization: reaction expression ([13]; after two-week course): 3.21 arbitrary units
- Eye opening-closing reaction: biopotential amplitude decline ([13]; after two-week course): 23.60 mV
- Eye opening-closing reaction: response ([13]; after two-week course): 3.07 arbitrary units
- HV-reaction (test with hyperventilation): reaction expression ([13]; after two-week course): 2.64 arbitrary units
- HV-reaction: after-effect ([13]; after two-week course): 20.70 s
- Presence of errors in count ([13]; after two-week course): 33.00%
- Repeated response to eye opening-closing: reaction expression ([13]; after two-week course): 3.00 arbitrary units
- Sonic signal count: reaction expression ([13]; after two-week course): 3.79 arbitrary units
- Sonic signal count: reaction suppression ([13]; after two-week course): 6.57 sonic signals
